The values that follow come from PMC8044163, “Vitamin D and lumisterol derivatives can act on liver X receptors (LXRs)” (Scientific Reports, 2021).

The structures appear in SMILES notation.

This assay concerns the target T1, LBD of LXRα (Homo sapiens, UniProt Q13133).
T1 construct: after addition of LXRα/β-LBD to the derivatives; purchased Thermo Fisher Scientific
T1 sequence (Q13133 209-447 limits assumed): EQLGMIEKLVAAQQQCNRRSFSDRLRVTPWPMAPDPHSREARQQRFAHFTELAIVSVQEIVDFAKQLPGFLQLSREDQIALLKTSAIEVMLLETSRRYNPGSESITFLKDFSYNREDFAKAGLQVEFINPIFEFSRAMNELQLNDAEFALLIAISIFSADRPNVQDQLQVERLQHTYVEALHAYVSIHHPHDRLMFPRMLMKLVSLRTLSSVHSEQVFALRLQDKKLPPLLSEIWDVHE
The assay can be described thus: LanthaScreen TR-FRET LXRα coactivator assay (LXR binding assay). The assay is classed as biochemical. As to conditions: average values; for IC50: inverse agonist; for EC50: agonist, read-out: LXRα EC50. The method, then: Binding assays of graded concentrations of vitamin D3 or lumisterol hydroxyderivatives to LXRα/β were performed using the LanthaScreen TR-FRET LXRα/β Coactivator kit (Thermo Fisher Scientific, Inc., Waltham, MA) following the manufacture’s protocol. Briefly, after addition of LXRα/β-LBD to the derivatives, a mixture of peptide (Fluorescein-TRAP220/DRIP-2 for LXRα or Fluorescein-D22 for LXRβ) and antibody (Tb-anti-GST) was added to the reaction followed by incubation in room temperature for 2 h. TR-FRET ratio was calculated by dividing the emission at 520 nm by the emission at 495 nm using Synergy neo2 (BioTek, Winooski, VT).

With `C=C1C(=CC=C2CCCC3(C)C2CCC3C(C)(O)CC(O)CC(C)C)CC(O)CC1O` (stereo not shown) [1,20,23(OH)3D3], the IC50 (as a rule, the concentration needed to halve the response being measured) was determined as 2.1 µM.
On to `C=C1/C(=C\C=C2/CCC[C@]3(C)[C@@H]([C@H](C)CCCC(C)(C)O)CC[C@@H]23)C[C@@H](O)C[C@@H]1O` [1,25(OH)2D3, reference compound], for which the IC50 came out at 1.1 µM.
With `C=C1CC[C@H](O)C/C1=C/C=C1\CCC[C@@]2(C)[C@H]1CC[C@@H]2[C@@](C)(O)CCCC(C)C` [20(OH)D3], the EC50 (usually the concentration that produces a half-maximal response) is 0.015 µM.
Take `C=C1CCC(O)CC1=CC=C1CCCC2(C)C1CCC2C(C)(O)CC(O)CC(C)C` (stereo not shown) [20,23(OH)2D3]: the EC50 is 1.1 µM.
